Assay results published in publication PMC8209673 (Cell reports, 2021).
Like-named read-outs stand apart in the source and are kept apart here.

Key:
[1] = test system: SOD1(A4V) ALS motor neurons; type: cell-based, human
SOD1(A4V) motor neurons [2] = assay: Multiple electrode array; type: cell-based, human; settings: for SOD1(A4V) motor neuron excitability: DRD2/3 agonists, MEA (Figure 4C)
[3] = test system: differentiated human ALS motor neurons; assay: Fura-2 calcium response imaging; type: cell-based; settings: fura-2 imaging
patients with ALS = settings: small-scale clinical trial; ref Nagata et al., 2016; cited from earlier work
[4] = test system: human motor neurons carrying SOD1, C9ORF72, and FUS mutations; settings: ref Wainger et al., 2014; cited from earlier work
[5] = test system: lower motor neuron hyperexcitability; settings: two clinical trials; ref Kovalchuk et al., 2018; Wainger et al., 2021; cited from earlier work
DRD3 = settings: cited from earlier work
SOD1(A4V) motor neurons [6] = assay: Patch clamp current-clamp recording of spontaneous firing; type: cell-based, human
DRD2 = settings: ref McCall et al., 2005; cited from earlier work
[7] = calcium wave count normalized to the DMSO control (100.00)
[8] = activity normalized to the DMSO control (100.00)

| SMILES | GCaMP6 (%) spontaneous motor neuron activity [1, 7] | MEA (%) spontaneous motor neuron activity (SOD1(A4V) motor neurons [2]) | also measured |
| --- | --- | --- | --- |
| CCn1c(=O)[nH]c2ccccc21 [1-Ebio (SB-423901)] | 103.33 ± 21.7% | 122.81 ± 27.8% | – |
| Cc1o[nH]c(=O)c1C[C@H](N)C(=O)O [AMPA] | – | – | calcium influx [3]: elicits a large calcium influx |
| Cc1cc(NC2CCCCC2)nc(-n2nc(C)cc2C)n1 [CyPPA (NS6277)] | 80.00 ± 27.4% | 12.72 ± 5.8% | – |
| O=C(Nc1cnc(Cl)nc1)c1ccc(F)c(F)c1 [ICA 069673] | 13.33 ± 13.9% | 0.07 ± 0.0% | – |
| O=C(Nc1ccc(Cl)nc1)c1ccc(F)c(F)c1 [ICA-27243] | 0.00 ± 0.0% | – | MEA (%) spontaneous motor neuron activity (SOD1(A4V) motor neurons [2]; [8]): 0.20 ± 0.1% |
| CN(C)C(=O)C(CCN1CCC(O)(c2ccc(Cl)cc2)CC1)(c1ccccc1)c1ccccc1 [Loperamide] | – | 0.02 ± 0.0% | GCaMP6 (%) spontaneous motor neuron activity [1]: 0.00± 0.0% |
| Cc1cc(C)c(NC(=O)C2CC3CCC2C3)c(C)c1 (stereo not shown) [ML213] | 0.00 ± 0.0% | 0.38 ± 0.4% | – |
| COc1ccc(Cl)cc1[C@]1(F)C(=O)Nc2cc(C(F)(F)F)ccc21 [Maxipost (BMS-204352)] | 36.67 ± 39.8% | 22.32 ± 1.1% | – |
| COCC(=O)O[C@]1(CCN(C)CCCc2nc3ccccc3[nH]2)CCc2cc(F)ccc2[C@@H]1C(C)C [Mibefradil] | 0.00 ± 0.0% | 0.02± 0.0% | – |
| O=C1Nc2c(ccc(Cl)c2Cl)C1=NO [NS309] | 110.00 ± 38.4% | 86.56 ± 14.4% | – |
| O=C1NC(=O)C(c2ccccc2)(c2ccccc2)N1 [Phenytoin] | 116.67 ± 56.5% | – | MEA (%) spontaneous motor neuron activity (SOD1(A4V) motor neurons [2]; [8]): 103.78 ± 41.1% |
| Nc1nc2c(ccc3ccccc32)s1 [SKA 31] | 123.33 ± 60.8% | 106.67 ± 44.4% | – |
| CC(C)C[C@H]1C(=O)N2CCC[C@H]2[C@]2(O)O[C@](NC(=O)[C@@H]3C=C4c5cccc6[nH]c(Br)c(c56)C[C@H]4N(C)C3)(C(C)C)C(=O)N12 [bromocriptine] | – | – | SOD1(A4V) motor neuron excitability (SOD1(A4V) motor neurons [2]): decreased SOD1(A4V) motor neuron excitability; motor function in patients with ALS (patients with ALS): sustained motor function |
| CCOC(=O)Nc1ccc(NCc2ccc(F)cc2)nc1N [flupirtine] | – | – | firing of human motor neurons [4]: block firing |
| CCOC(=O)Nc1ccc(NCc2ccc(F)cc2)cc1N [retigabine] | – | – | lower motor neuron hyperexcitability in patients with ALS [5]: decreased lower motor neuron hyperexcitability; firing of human motor neurons [4]: block firing |
| CN[C@@H]1Cc2cccc3[nH]c(=O)n(c23)C1 [sumanirole] | – | – | Ki (DRD3): 1940 nM; SOD1(A4V) motor neuron excitability (SOD1(A4V) motor neurons [2]): decreased SOD1(A4V) motor neuron excitability; membrane potential change (SOD1(A4V) motor neurons [6]; patch clamp, accompanying the decrease in firing): slight hyperpolarization; firing frequency (SOD1(A4V) motor neurons [6]; patch clamp, sumanirole 10 μM perfusion, control neurons): decrease in firing frequency; reduced excitability in DRD2 knockdown motor neurons (SOD1(A4V) motor neurons [6]; shRNA-mediated DRD2 knockdown, sumanirole 10 μM): insensitive; Ki (DRD2): 2 nM |
